Test results published in publication PMC5762315, “Inhibition of polo-like kinase 4 (PLK4): a new therapeutic option for rhabdoid tumors and pediatric medulloblastoma” (Oncotarget, 2017).
“And” between values parts separate entries of the source, which are not always exact repeats. Identical values can stand only once.

Columns and labels:
Test in all cases: biochemical
Type in all cases: biochemical
various kinases [1] = molecular target: various kinases (Homo sapiens, UniProt P00533, L858R); conditions: EGFR (ErbB1) L858R
various kinases [2] = molecular target: various kinases (Homo sapiens, UniProt P04049, Y340D/Y341D); conditions: kinase RAF1 (cRAF) Y340D Y341D; ZLYTE
various kinases [3] = molecular target: various kinases (Homo sapiens, UniProt P05771); conditions: kinase PRKCB1 (PKC beta I); ZLYTE
various kinases [4] = molecular target: various kinases (Homo sapiens, UniProt P07949, V804L); conditions: kinase RET V804L; ZLYTE
various kinases [5] = molecular target: various kinases (Homo sapiens, UniProt P14616); conditions: INSRR (IRR)
various kinases [6] = molecular target: various kinases (Homo sapiens, UniProt P16234); conditions: PDGFRA (PDGFR alpha)
various kinases [7] = molecular target: various kinases (Homo sapiens, UniProt P17948); conditions: FLT1 (VEGFR1)
various kinases [8] = molecular target: various kinases (Homo sapiens, UniProt P21709); conditions: EPHA1
various kinases [9] = molecular target: various kinases (Homo sapiens, UniProt P29597); conditions: kinase TYK2; ZLYTE
various kinases [10] = molecular target: various kinases (Homo sapiens, UniProt P35968); conditions: KDR (VEGFR2)
various kinases [11] = molecular target: various kinases (Homo sapiens, UniProt P41279); conditions: MAP3K8 (COT)
various kinases [12] = molecular target: various kinases (Homo sapiens, UniProt P42345); conditions: FRAP1 (mTOR)
various kinases [13] = molecular target: T1, various kinases (Homo sapiens, UniProt P43403); conditions: kinase ZAP70; ZLYTE
T1 sequence (P43403 1-619): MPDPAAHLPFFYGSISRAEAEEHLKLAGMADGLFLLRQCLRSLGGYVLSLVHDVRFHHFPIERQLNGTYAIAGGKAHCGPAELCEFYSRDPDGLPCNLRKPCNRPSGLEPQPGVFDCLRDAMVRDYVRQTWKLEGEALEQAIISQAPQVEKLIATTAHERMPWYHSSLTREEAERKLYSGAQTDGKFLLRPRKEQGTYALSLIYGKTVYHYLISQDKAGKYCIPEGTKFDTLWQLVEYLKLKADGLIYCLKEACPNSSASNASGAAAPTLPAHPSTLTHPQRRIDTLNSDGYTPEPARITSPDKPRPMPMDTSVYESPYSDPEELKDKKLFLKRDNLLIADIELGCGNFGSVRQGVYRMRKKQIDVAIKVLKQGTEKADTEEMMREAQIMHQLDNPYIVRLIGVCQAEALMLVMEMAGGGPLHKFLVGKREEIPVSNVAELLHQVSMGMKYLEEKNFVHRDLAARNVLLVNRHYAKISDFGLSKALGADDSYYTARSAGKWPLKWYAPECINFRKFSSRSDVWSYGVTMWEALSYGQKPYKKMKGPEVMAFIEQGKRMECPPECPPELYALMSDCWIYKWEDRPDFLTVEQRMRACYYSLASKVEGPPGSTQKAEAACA

various kinases [14] = molecular target: various kinases (Homo sapiens, UniProt P48729); conditions: CSNK1A1 (CK1 alpha 1)
various kinases [15] = molecular target: various kinases (Homo sapiens, UniProt P48730); conditions: CSNK1D (CK1 delta)
various kinases [16] = molecular target: various kinases (Homo sapiens, UniProt P49759); conditions: CLK1
various kinases [17] = molecular target: various kinases (Homo sapiens, UniProt P49840); conditions: GSK3A (GSK3 alpha)
various kinases [18] = molecular target: various kinases (Homo sapiens, UniProt P51813); conditions: BMX
various kinases [19] = molecular target: various kinases (Homo sapiens, UniProt P52333); conditions: JAK3
various kinases [20] = molecular target: various kinases (Homo sapiens, UniProt P54764); conditions: EPHA4
various kinases [21] = molecular target: various kinases (Homo sapiens, UniProt Q08881); conditions: ITK
various kinases [22] = molecular target: various kinases (Homo sapiens, UniProt Q13554); conditions: CAMK2B (CaMKII beta)
various kinases [23] = molecular target: various kinases (Homo sapiens, UniProt Q15418); conditions: kinase RPS6KA1 (RSK1); ZLYTE
various kinases [24] = molecular target: various kinases (Homo sapiens, UniProt Q5VT25); conditions: CDC42 BPA (MRCKA)
various kinases [25] = molecular target: various kinases (Homo sapiens, UniProt Q7KZI7); conditions: MARK2
various kinases [26] = molecular target: various kinases (Homo sapiens, UniProt Q86Z02); conditions: HIPK1 (Myak)
various kinases [27] = molecular target: various kinases (Homo sapiens, UniProt Q8TDC3); conditions: BRSK1 (SAD1)
various kinases [28] = molecular target: various kinases (Homo sapiens, UniProt Q9NYY3); conditions: kinase PLK2; ZLYTE
various kinases [29] = molecular target: various kinases (Homo sapiens, UniProt Q9UQM7); conditions: CAMK2A (CaMKII alpha)

Sequence of various kinases (Homo sapiens, UniProt P05771) (P05771 whole entry): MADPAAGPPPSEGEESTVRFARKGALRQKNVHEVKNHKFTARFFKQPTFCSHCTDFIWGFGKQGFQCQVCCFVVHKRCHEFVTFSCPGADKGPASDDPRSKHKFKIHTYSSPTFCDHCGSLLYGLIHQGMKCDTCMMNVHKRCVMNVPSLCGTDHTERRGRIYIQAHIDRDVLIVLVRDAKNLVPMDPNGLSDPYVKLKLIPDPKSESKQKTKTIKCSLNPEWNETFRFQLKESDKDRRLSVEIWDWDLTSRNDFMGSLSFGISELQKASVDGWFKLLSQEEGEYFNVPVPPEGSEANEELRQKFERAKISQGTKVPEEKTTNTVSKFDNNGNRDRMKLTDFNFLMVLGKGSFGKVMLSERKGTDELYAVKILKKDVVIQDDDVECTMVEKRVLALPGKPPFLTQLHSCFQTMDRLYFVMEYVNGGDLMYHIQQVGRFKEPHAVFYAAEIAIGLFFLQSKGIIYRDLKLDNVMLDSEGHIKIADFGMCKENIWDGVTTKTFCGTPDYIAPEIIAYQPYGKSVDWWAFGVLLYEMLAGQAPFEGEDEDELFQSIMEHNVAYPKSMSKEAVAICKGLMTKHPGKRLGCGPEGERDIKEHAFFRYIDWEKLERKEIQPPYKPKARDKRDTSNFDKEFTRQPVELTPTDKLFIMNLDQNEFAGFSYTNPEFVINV
Sequence of various kinases (Homo sapiens, UniProt P07949, V804L) (P07949 29-1114 V804L): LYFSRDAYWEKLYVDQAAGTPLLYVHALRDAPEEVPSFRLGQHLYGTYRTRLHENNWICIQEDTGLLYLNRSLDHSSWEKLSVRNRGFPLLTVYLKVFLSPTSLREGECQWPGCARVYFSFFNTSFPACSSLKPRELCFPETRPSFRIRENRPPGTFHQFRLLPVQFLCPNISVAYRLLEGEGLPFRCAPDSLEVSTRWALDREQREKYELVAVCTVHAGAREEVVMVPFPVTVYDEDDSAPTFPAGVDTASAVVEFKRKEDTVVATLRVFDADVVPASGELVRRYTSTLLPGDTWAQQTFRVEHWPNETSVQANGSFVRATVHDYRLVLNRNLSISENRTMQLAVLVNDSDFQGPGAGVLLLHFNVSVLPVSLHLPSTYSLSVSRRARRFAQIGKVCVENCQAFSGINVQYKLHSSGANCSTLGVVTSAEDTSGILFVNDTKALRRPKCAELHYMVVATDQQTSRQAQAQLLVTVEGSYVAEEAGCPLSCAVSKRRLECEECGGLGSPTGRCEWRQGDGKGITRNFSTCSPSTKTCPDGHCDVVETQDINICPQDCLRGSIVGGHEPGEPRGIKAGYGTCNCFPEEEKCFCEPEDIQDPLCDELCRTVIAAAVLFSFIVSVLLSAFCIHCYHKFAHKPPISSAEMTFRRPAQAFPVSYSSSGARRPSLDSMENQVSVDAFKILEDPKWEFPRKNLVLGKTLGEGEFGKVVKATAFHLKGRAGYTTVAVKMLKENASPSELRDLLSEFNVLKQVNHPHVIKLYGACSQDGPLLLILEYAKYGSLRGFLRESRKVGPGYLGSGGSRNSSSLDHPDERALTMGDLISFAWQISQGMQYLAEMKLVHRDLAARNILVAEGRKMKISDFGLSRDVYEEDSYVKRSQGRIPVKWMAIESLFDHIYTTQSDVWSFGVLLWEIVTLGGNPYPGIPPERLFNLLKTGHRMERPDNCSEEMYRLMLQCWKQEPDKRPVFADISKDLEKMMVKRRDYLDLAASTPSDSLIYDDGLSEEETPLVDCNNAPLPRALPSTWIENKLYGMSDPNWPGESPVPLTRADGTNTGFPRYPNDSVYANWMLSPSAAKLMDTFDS
Sequence of various kinases (Homo sapiens, UniProt Q08881) (Q08881 whole entry): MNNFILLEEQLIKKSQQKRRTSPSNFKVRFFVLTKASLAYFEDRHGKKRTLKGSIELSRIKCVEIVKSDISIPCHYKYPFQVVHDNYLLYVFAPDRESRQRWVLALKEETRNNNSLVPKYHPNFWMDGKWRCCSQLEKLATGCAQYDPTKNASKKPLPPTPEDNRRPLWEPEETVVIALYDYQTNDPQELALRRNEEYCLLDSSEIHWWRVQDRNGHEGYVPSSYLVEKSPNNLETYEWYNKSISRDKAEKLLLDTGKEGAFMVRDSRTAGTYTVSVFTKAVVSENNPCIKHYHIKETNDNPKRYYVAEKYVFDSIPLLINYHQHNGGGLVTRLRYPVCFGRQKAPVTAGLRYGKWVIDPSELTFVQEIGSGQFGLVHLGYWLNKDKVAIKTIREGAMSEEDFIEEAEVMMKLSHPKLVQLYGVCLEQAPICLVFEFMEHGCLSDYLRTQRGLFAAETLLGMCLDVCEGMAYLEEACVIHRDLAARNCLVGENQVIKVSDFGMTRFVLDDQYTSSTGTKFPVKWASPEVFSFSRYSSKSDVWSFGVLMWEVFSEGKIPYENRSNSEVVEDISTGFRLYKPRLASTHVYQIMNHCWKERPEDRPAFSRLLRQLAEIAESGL
Sequence of various kinases (Homo sapiens, UniProt Q15418) (Q15418 whole entry): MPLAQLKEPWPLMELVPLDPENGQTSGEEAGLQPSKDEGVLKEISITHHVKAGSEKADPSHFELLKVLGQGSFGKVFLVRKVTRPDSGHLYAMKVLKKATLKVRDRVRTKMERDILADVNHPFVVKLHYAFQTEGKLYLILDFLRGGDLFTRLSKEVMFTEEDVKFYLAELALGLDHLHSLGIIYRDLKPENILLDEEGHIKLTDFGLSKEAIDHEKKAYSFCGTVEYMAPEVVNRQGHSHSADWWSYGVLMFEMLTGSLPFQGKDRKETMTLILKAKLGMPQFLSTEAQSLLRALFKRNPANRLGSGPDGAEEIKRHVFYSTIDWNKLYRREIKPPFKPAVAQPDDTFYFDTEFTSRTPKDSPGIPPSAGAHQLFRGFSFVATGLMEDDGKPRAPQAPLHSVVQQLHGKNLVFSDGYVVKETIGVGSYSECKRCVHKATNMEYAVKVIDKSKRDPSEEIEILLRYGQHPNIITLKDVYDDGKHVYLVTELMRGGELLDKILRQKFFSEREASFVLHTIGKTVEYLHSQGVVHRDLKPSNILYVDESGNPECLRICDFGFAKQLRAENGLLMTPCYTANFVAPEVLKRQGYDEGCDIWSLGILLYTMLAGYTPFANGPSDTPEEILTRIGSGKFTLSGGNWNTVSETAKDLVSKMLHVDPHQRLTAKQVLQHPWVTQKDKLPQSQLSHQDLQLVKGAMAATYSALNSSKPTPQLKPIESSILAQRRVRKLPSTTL
Sequence of various kinases (Homo sapiens, UniProt P29597) (P29597 whole entry): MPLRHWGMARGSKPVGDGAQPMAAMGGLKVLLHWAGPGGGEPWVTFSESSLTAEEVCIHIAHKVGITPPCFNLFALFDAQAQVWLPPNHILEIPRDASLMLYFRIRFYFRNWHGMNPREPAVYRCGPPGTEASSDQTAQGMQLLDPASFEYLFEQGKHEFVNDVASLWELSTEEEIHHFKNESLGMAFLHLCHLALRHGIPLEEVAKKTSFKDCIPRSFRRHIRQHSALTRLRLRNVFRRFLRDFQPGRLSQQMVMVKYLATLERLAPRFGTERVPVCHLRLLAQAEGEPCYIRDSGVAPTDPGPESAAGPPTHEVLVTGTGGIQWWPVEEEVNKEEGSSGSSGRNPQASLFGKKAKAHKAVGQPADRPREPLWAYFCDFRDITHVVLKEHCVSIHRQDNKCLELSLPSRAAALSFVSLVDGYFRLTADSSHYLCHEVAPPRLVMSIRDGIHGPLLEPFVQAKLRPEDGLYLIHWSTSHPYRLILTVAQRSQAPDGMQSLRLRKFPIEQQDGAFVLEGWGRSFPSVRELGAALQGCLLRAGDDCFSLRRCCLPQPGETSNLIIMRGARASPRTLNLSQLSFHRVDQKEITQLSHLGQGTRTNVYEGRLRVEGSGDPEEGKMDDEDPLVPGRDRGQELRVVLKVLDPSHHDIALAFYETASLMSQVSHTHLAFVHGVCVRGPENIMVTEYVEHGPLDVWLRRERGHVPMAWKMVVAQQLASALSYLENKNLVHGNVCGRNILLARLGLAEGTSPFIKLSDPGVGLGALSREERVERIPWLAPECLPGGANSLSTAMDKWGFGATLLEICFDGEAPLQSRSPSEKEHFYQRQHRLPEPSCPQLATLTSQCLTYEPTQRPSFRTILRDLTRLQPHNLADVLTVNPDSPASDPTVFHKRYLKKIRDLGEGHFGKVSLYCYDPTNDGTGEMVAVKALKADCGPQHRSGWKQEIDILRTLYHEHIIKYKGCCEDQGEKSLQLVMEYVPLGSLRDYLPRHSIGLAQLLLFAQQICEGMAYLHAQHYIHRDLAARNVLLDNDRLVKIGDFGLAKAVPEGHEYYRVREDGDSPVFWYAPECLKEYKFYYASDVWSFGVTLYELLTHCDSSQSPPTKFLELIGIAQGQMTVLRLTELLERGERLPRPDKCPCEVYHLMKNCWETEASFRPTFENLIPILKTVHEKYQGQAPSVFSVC
Sequence of various kinases (Homo sapiens, UniProt P04049, Y340D/Y341D) (P04049 whole entry Y340D/Y341D): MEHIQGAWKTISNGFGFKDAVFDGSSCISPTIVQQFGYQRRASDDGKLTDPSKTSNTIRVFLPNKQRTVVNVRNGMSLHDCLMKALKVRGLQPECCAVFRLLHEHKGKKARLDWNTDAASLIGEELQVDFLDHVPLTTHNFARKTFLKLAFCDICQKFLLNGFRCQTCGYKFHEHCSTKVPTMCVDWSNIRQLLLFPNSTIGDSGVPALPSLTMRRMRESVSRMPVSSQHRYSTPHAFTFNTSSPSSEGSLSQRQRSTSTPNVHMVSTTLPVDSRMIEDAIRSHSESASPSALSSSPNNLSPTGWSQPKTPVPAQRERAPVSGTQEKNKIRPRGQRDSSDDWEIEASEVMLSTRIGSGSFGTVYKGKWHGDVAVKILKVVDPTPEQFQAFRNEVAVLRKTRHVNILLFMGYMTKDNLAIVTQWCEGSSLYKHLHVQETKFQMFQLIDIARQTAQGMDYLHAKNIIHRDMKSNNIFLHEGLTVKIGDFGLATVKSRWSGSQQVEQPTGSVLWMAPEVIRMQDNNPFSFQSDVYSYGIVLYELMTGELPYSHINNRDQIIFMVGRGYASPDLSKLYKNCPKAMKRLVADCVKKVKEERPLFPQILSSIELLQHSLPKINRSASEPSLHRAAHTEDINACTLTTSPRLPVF

`COc1ccc2c(c1)[C@]1(C[C@H]1c1ccc3c(/C=C/c4ccc(CN5C[C@@H](C)O[C@@H](C)C5)cc4)n[nH]c3c1)C(=O)N2` [CFI-400945] was tested, and the “% Inhibition” value (various kinases [1]) was 1% and 2%, the “% Inhibition Average” value (various kinases [2]) was 12% and the “% Inhibition Duplicate #1” value (various kinases [2]) was 10%. For the same compound, the “% Inhibition Duplicate #2” value (various kinases [2]) was 14%, the “% Inhibition Average” value (various kinases [3]) was 17% and the “% Inhibition Duplicate #1” value (various kinases [3]) was 18%. The “% Inhibition Duplicate #2” value (various kinases [3]) was 16%, the “% Inhibition Average” value (various kinases [4]) was 17% and the “% Inhibition Duplicate #1” value (various kinases [4]) was 14%. For the same compound, the “% Inhibition Duplicate #2” value (various kinases [4]) was 19%, the “% Inhibition” value (various kinases [5]) was 4% and 6% and the “% Inhibition” value (various kinases [6]) was 3% and 2%. The “% Inhibition” value (various kinases [7]) was 0% and 1%, the “% Inhibition” value (various kinases [8]) was 20% and 26% and the “% Inhibition Average” value (various kinases [9]) was 2%. The “% Inhibition Duplicate #1” value (various kinases [9]) was 2%, the “% Inhibition Duplicate #2” value (various kinases [9]) was 2% and the “% Inhibition” value (various kinases [10]) was 16% and 15%. The “% Inhibition” value (various kinases [11]) was 7%, the “% Inhibition” value (various kinases [12]) was 2% and 5% and the “% Inhibition Average” value (various kinases [13]) was 2%. For the same compound, the “% Inhibition Duplicate #1” value (various kinases [13]) was 0%, the “% Inhibition Duplicate #2” value (various kinases [13]) was 4% and the “% Inhibition” value (various kinases [14]) was 7%. The “% Inhibition” value (various kinases [15]) was -2% and 3%, the “% Inhibition” value (various kinases [16]) was -1% and the “% Inhibition” value (various kinases [17]) was 3% and 4%. For the same compound, the “% Inhibition” value (various kinases [18]) was 52% and 54%, the “% Inhibition” value (various kinases [19]) was 23% and the “% Inhibition” value (various kinases [20]) was 13% and 8%. For the same compound, the “% Inhibition” value (various kinases [21]) was 56% and 53%, the IC50 (various kinases [21]) was 200 nM and the “% Inhibition” value (various kinases [22]) was 13% and 14%. For the same compound, the “% Inhibition Average” value (various kinases [23]) was 7%, the “% Inhibition Duplicate #1” value (various kinases [23]) was 7% and the “% Inhibition Duplicate #2” value (various kinases [23]) was 6%. The “% Inhibition” value (various kinases [24]) was 3% and 10%, the “% Inhibition” value (various kinases [25]) was 7% and 2% and the “% Inhibition” value (various kinases [26]) was 0%. The “% Inhibition” value (various kinases [27]) was 13% and 7%, the “% Inhibition Average” value (various kinases [28]) was 4% and the “% Inhibition Duplicate #1” value (various kinases [28]) was 4%. For the same compound, the “% Inhibition Duplicate #2” value (various kinases [28]) was 4% and the “% Inhibition” value (various kinases [29]) was -3% and -1%.
